Non-standard residues stand in square brackets, D forms with d. No end group written: not given here. *: point of attachment. β‑estradiol 3‑ether = C[C@]12CC[C@@H]3c4ccc(O*)cc4CC[C@H]3[C@@H]1CC[C@@H]2O; Aib = CC(C)(N)C(=O)O
Tests used:
[1] = Example 17: DIO mice, 40 μg/kg sc daily for one week; assay type: in vivo; settings: between days 0 and 7
Experimental: Diet-induced obesity (DIO) mice (N=8, average initial body weight=65 g) were subcutaneously injected once per day for one week with vehicle or 40 μg/kg one of the following:
Body weight was measured after 7 days and the change in body weight and the fat mass were determined (FIG. 6a-b). […] The analysis of fat mass (FIG. 6b) was relatively constant with total loss in body weight.

[2] = target: T1, glucocorticoid receptor (Homo sapiens, UniProt P04150); experiment: Glucocorticoid receptor luciferase reporter gene assay in HeLa cell clones (MMTV-LTR luciferase); assay type: cell-based; settings: Example 37; two HeLa reporter clones; compared with unconjugated dexamethasone
T1 construct: two clones of HeLa cells (ATCC #CCL-2) transfected with murine mammary tumor virus long terminal repeat-driven firefly luciferase; host or cells: HeLa
T1 sequence (P04150 1-777): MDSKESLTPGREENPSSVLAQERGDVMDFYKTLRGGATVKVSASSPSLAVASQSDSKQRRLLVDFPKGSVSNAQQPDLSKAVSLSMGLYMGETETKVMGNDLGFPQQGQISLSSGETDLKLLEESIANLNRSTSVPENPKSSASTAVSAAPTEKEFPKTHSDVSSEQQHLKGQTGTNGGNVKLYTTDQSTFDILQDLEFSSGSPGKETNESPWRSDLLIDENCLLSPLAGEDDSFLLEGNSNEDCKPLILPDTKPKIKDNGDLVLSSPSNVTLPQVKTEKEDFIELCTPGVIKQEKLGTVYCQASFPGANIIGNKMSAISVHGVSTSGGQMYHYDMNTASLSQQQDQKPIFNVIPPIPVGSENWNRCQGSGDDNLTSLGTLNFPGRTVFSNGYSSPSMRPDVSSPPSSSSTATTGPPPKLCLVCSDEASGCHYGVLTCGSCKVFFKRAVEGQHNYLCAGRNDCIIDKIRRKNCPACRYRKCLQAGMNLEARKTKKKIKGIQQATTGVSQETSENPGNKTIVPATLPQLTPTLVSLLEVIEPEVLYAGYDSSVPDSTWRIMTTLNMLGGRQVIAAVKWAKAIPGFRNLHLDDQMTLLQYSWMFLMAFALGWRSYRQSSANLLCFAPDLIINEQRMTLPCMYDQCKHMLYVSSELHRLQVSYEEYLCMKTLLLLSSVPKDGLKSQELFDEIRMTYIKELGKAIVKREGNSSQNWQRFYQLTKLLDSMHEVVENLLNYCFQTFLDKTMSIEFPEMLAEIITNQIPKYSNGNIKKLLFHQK
Experimental: The activities of the peptide conjugates in Examples 32 and 33 at the glucocorticoid receptor were tested in the luciferase reporter gene assay using two clones of HeLa cells (ATCC #CCL-2) transfected with murine mammary tumor virus long terminal repeat-driven firefly luciferase.

[3] = Example 19: mice, sc daily for one week; assay type: in vivo; settings: between days 0 and 7
Experimental: Mice (N=8, average body weight 55 g) were administered subcutaneous injections once per day for one week with vehicle or one of the following:
Body weight was measured after 7 days and the change in body weight was determined (FIG. 8a). There was little apparent difference in body weight lowering at these doses for the peptides with and without the estrogen.

[4] = Example 20: DIO mice, sc daily; assay type: in vivo; settings: 7 days
Experimental: Diet induced obesity mice (DIO) (N=8, average body weight 61 g) were administered subcutaneous injections once per day for one or two weeks with vehicle or 40, 400, 1200, or 4000 μg/kg of one of the following: […]

[5] = Example 16: mice on diabetic diet for 9 months, sc dosing; assay type: in vivo; settings: low daily dose, 7 days
[6] = target: T2, GLP-1 receptor (Homo sapiens, UniProt P43220); experiment: cAMP induction, firefly luciferase reporter assay in HEK293 cells, GLP-1 receptor; assay type: cell-based; settings: GLP-1 receptor versus glucagon receptor
T2 construct: expressed in transfected cells; host or cells: HEK293
T2 sequence (P43220 24-463, species assumed): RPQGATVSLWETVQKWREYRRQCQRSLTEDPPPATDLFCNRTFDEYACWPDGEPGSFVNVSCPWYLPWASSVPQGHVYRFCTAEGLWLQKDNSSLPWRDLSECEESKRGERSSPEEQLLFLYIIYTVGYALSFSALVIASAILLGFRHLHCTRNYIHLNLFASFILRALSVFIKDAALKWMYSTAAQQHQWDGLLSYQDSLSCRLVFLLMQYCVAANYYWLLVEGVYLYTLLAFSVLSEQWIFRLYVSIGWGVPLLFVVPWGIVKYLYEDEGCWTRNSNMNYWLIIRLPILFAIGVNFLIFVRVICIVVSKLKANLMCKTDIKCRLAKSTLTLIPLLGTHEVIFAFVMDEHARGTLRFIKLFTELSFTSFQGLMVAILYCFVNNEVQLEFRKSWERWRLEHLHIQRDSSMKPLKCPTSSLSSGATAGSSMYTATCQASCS
Experimental: The ability of each peptide to induce cAMP was measured in a firefly luciferase-based reporter assay. […] HEK293 cells co-transfected with the receptor and luciferase gene linked to a cAMP responsive element were employed for the bioassay.
At the end of the incubation, 100 μL of LucLite luminescence substrate reagent (Perkin Elmer, Wellesley, Mass.) were added to each well. […] All EC50s and IC50s are reported in the following examples in nM, unless indicated otherwise.

[7] = Administration of GLP-1 conjugates to ovariectomized mice (FIGS. 13, 14); assay type: in vivo
[8] = Administration of GLP-1 conjugates to mice, model not stated (FIGS. 15, 19); assay type: in vivo; settings: vs GLP-1 agonist alone or GLP-1 agonist/Estrogen(3-ester) conjugate
[9] = Example 25: ovariectomized C57BI/6 mice, 4000 μg/kg sc daily for 7 days; assay type: in vivo
[10] = Example 27: DIO mice, sc daily for two weeks; assay type: in vivo
Experimental: Diet induced obesity mice were administered subcutaneous injections once per day for two weeks with vehicle or 40 or 400 μg/kg of one of the following: […]

[11] = Example 29: DIO mice, 400 μg/kg sc daily for seven days; assay type: in vivo
[12] = Example 30: DIO wild type, ERβ KO and ERα KO mice, 400 μg/kg sc daily for two weeks; assay type: in vivo
Experimental: Diet-induced obesity wild type mice, estrogen receptor beta knock-out (ERβ KO) mice, and estrogen receptor alpha knock-out (ERα KO) mice were administered subcutaneous injections once per day for two weeks with vehicle or 400 μg/kg of one of the following:

[13] = Example 21: mice on diabetic diet, sc daily for one week; assay type: in vivo; settings: between days 0 and 7
[14] = target: T2, GLP-1 receptor; experiment: GLP-1 Activity (cAMP induction), CRE-luciferase reporter in HEK293 cells; assay type: cell-based
Experimental: (§1) Luminescence was measured after cell lysis and incubation with luciferin.
as §1, §1

[15] = target: T2, GLP-1 receptor; experiment: GLP-1 Binding, [I125]-GLP-1 SPA with receptor membrane extracts

GLP-1(Aib^2E^16Cex K^40)/Estrogen(17-ester): E16 GLP-1 analog conjugated to estrogen by 17-ester (H[Aib]EGTFTSDVSSYLEEQAAKEFIAWLVKGGPSSGAPPPSK-NH2; not fully specified (residue 40))
change in blood glucose [1]: greatest change in blood glucose

[Aib2, E16]GLP-1-CEX-Lys40(NHCO—O-DEX)
agonist activity at the glucocorticoid receptor [2]: retained the greatest amount of activity at the glucocorticoid receptor

GLP-1(Aib^2E^16Cex K^40)/Estrogen(3-ester): E16 GLP-1 analog conjugated to estrogen by 3-ester (H[Aib]EGTFTSDVSSYLEEQAAKEFIAWLVKGGPSSGAPPPSK-NH2; not fully specified (residue 40))
change in blood glucose levels [3]: greatest change in blood glucose levels
cumulative food intake [4]: consumed significantly less food than mice that were administered GLP-1 alone

GLP-1(Aib^2E^16C^24(PEG-40 kDa)Cex K^40): GLP-1 analog PEGylated (40 kDa) at Cys24 (H[Aib]EGTFTSDVSSYLEEQAAKEFIC(PEG 40 kDa thioether)WLVKGGPSSGAPPPSK-NH2)
cumulative food intake [5]: consumed the least amount of food

SEQ ID NO: 22: glucagon analog generated by substituting the native glutamine at position 3 with glutamic acid
selectivity for the GLP-1 receptor [6]: approximately a tenfold selectivity

GLP-1 agonist/Estrogen(3-ether): active, estrogen-stable GLP-1 agonist/Estrogen(3-ether) conjugate (H[Aib]EGTFTSDVSSYLEEQAAKEFIAWLVKGGPSSGAPPPSK(β‑estradiol 3‑ether)-NH2)
fat mass ([7]; FIG. 13b): decrease in fat mass
blood glucose levels ([7]; FIG. 13d): decrease in blood glucose levels greater than vehicle
change in body weight ([7]; vs GLP-1 agonist alone and the inactive d-amino acid conjugates, FIG. 13a): greater decrease
food intake ([7]; vs GLP-1 agonist alone and the inactive d-amino acid conjugates, FIG. 13c): consumed less food
change in body weight ([8]; FIG. 15a): significantly greater decrease
cumulative food intake ([8]; FIG. 15b): significantly less food
change in blood glucose ([9]; 4000 μg/kg): decrease in blood glucose levels greater than vehicle
fat mass ([9]; 4000 μg/kg): decrease in fat mass
change in body weight ([9]; 4000 μg/kg, after 7 days): greater decrease in body weight
cumulative food intake ([9]; 7 days): consumed less food
change in body weight ([10]; 40 or 400 μg/kg, after 15 days): significantly greater decrease in body weight
cumulative food intake ([10]; 15 days): consumed significantly less food
change in body weight ([11]; after 7 days): greatest decrease in body weight
change in blood glucose ([11]; over 7 days): decrease in blood glucose levels over 7 days, with the decrease greater in mice that were administered the conjugate
decrease in body weight ([12]; ERα KO mice, two weeks): ~20%
decrease in body weight ([12]; ERβ KO mice, two weeks): ~15%
cumulative food intake ([12]; knock-out mice): consumed the least amount of food
decrease in body weight ([12]; wild type DIO mice, two week period): ~10%

SEQ ID NO: 1659: GLP-1 based glucagon superfamily peptide conjugated to estradiol or estrone through a hydrolyzable linkage ([dA][Aib][dE]G[dT][dF][dT][dS][dD][dV][dS][dS][dY][dL][dE]G[dQ][dA][dA][dK][dE][dA][dI][dA][dW][dL][dV][dK]GG[dP][dS][dS]G[dA][dP][dP][dP][dS]K-NH2; not fully specified (residue 40))
change in blood glucose levels [13]: greater change in blood glucose levels

CC[C@H](C)[C@H](NC(=O)[C@H](Cc1ccccc1)NC(=O)[C@H](CCC(=O)O)NC(=O)[C@H](CCCCN)NC(=O)[C@H](C)NC(=O)[C@H](C)NC(=O)[C@H](CCC(N)=O)NC(=O)[C@H](CCC(=O)O)NC(=O)[C@H](CCC(=O)O)NC(=O)[C@H](CC(C)C)NC(=O)[C@H](Cc1ccc(O)cc1)NC(=O)[C@H](CO)NC(=O)[C@H](CO)NC(=O)[C@@H](NC(=O)[C@H](CC(=O)O)NC(=O)[C@H](CO)NC(=O)[C@@H](NC(=O)[C@H](Cc1ccccc1)NC(=O)[C@@H](NC(=O)CNC(=O)[C@H](CCC(=O)O)NC(=O)C(C)(C)NC(=O)[C@@H](N)Cc1c[nH]cn1)[C@@H](C)O)[C@@H](C)O)C(C)C)C(=O)N[C@@H](C)C(=O)N[C@@H](Cc1c[nH]c2ccccc12)C(=O)N[C@@H](CC(C)C)C(=O)N[C@H](C(=O)N[C@@H](CCCCN)C(=O)NCC(=O)NCC(=O)N1CCC[C@H]1C(=O)N[C@@H](CO)C(=O)N[C@@H](CO)C(=O)NCC(=O)N[C@@H](C)C(=O)N1CCC[C@H]1C(=O)N1CCC[C@H]1C(=O)N1CCC[C@H]1C(=O)N[C@@H](CO)C(=O)N[C@@H](CCCCNC(=O)COc1ccc2c(c1)CC[C@@H]1[C@@H]2CC[C@]2(C)[C@@H](O)CC[C@@H]12)C(N)=O)C(C)C [GLP-1/Estrogen(3-ether)]
EC50 [14]: 0.012 ± 0.003 nM
IC50 [15]: 0.717 ± 0.135 nM

Reference: US8859491B2 (priority 2011, dated 2014)
